≈ marks a conversion by molar mass, not a printed value. Like-named read-outs stand apart in the source and are kept apart here.
Experiments:
Pseudomonas aeruginosa = test: RFX MIC testing against MDR clinical isolates; assay type: cell-based
Experimental: (§1) Minimum Inhibitory Concentration Testing. MIC testing was performed as previously described. Briefly, overnight culture of bacteria was diluted in 1:100 of a 0.5 McFarland standard as inoculum. The same number of cells was grown in LB broth containing serial, two-fold dilutions of rifaximin (RFX) or tobramycin (TOB). Growth was measured via optical density (OD) at 600 nm after 24 h incubation at 37° C. Concentrations of antibiotic required for inhibition of 50% and 90% of strains were determined.
(§2) Because RFX was not a traditional treatment for P. aeruginosa infections, it was first tested whether RFX was effective in vitro against P. aeruginosa and other bacterial pathogens seen in CF. Since RFX is not used for treatment of ventilator-associated pneumonia (VAP), it was thought the isolates of tracheal aspirates from VAP patients in the ICU may be sensitive to RFX. To determine the susceptibility to RFX, resistant isolates from the Cabell Huntington Hospital were chosen to measure the minimum inhibitory concentrations (MIC) for RFX (Table 3).
(§3) MIC50 and MIC90 are the concentrations of RFX required for the growth inhibition of 50% and 90% of strains, respectively.

[1] = system: Stenotrophomonas maltophilia; test: RFX MIC testing against MDR clinical isolates; assay type: cell-based
Experimental: as §1, §2, §3

Burkholderia cepacia = test: RFX MIC testing against MDR clinical isolates; assay type: cell-based
Experimental: as §1, §2, §3

Acinetobacter baumannii = test: RFX MIC testing against MDR clinical isolates; assay type: cell-based
Experimental: as §1, §2, §3

Staphylococcus aureus = test: RFX MIC testing against MDR clinical isolates; assay type: cell-based
Experimental: as §1, §2, §3

[2] = Particle (droplet) size analysis of aerosol drugs; assay type: physicochemical; conditions: 60 mg/mL; TOB in 0.225% saline, RFX in 100% DMSO; nebulizer aerosol, Malvern Spraytec
Experimental: Particle Size Analysis of Aerosol Drugs. Droplet size analysis of drugs used for aerosol therapy was conducted by Spray Analytics (Lincolnshire, Ill.). Samples of TOB in 0.225% saline and RFX in 100% DMSO at concentrations of 60 mg/mL for both were prepared and submitted along with nebulizer unit used for animal experiments. A Malvern Spraytec was used for analysis with the tested product sprayed horizontally at less than 5 cm from the detector beam. The samples were measured in triplicates for 20-30 seconds of stable operation of the nebulizer. Refractive index and absorption values used were that of DMSO for RFX and water for TOB.
The potential adverse effects of using DMSO were first assessed by nebulizing DMSO alone to a group of C57BL/6 mice (n=8). This type of mice was used due to their natural resistance against infection based on our previous studies. […] Next, the delivery of both RFX and TOB via nebulization was optimized. […] To determine the dosage of each drug received by the mice, the lungs were homogenized and drug concentrations of TOB and RFX were determined via ELISA and HPLC, respectively. […] The droplet size for both TOB and RFX were determined to be identical with the average droplet size for TOB and RFX being 5.07 μm and 5.02 μm, respectively.

[3] = system: P. aeruginosa PAO1 with bioluminescent operon (luxCDABE); test: Murine pneumonia model, multiple-dose treatment, lung bacterial load; assay type: in vivo, DBA/2 mice; conditions: 300 mg doses at 6, 8 and 10 h post-infection (3× TOB, or RFX then 2× TOB); lungs at 12, 18, 24 h
From the text: FIG. 6 is a graph showing that the addition of RFX to multiple treatments of TOB results in a decrease of CFU per milliliter of P. aeruginosa in mouse lungs. Plot showing the CFU per milliliter counts of mice after being infected with P. aeruginosa and left untreated, treated with multiple doses of TOB, or treated with multiple doses of TOB with addition of RFX. Data shown represent average of 2 mice per time point per group. Two-way ANOVA was used to test for statistical significance with a P value of <0.01 (****, P<0.0001).
Female DBA/2 mice were infected at 0 hour and split into 3 experimental groups of 8: no treatment; treatment with 300 mg TOB at 6, 8, and 10 h post-infection; or treatment with 300 mg RFX at 6 h and 300 mg TOB at 8 and 10 h post-infection. Two mice from each group were sacrificed at 12, 18, and 24 h post-infection. Lungs from sacrificed mice were homogenized in 1% PPBS and tested for bacterial growth to determine CFU load per mouse. Bacteria grown were also imaged for evidence of bioluminescence. Two mice from each group were left to observe for survival.
Based on the efficacy seen with the single dose treatment a multiple dose study was used to replicate clinical treatment conditions seen with CF infections. The efficacy of TOB in multiple doses with or without RFX was determined using the established lung infection model. […]

[4] = Stenotrophomonas maltophilia, 1 strain

CO[C@H]1/C=C/O[C@@]2(C)Oc3c(C)c(O)c4c(O)c(c5c(nc6cc(C)ccn65)c4c3C2=O)NC(=O)/C(C)=C\C=C\[C@H](C)[C@H](O)[C@@H](C)[C@@H](O)[C@@H](C)[C@H](OC(C)=O)[C@@H]1C [RFX, rifaximin] gave an MIC50 (Pseudomonas aeruginosa; 26 MDR clinical isolates, concentration inhibiting growth of 50% of strains) of 8 µg/mL (≈ 10.2 µM), an MIC90 (Pseudomonas aeruginosa; 26 MDR clinical isolates, concentration inhibiting growth of 90% of strains) of 16 µg/mL (≈ 20.4 µM) and an MIC50 (Pseudomonas aeruginosa; Pseudomonas aeruginosa, MDR P. aeruginosa, read-out: MIC50) of 8 µg/mL (≈ 10.2 µM). The MIC90 (Pseudomonas aeruginosa; Pseudomonas aeruginosa, MDR P. aeruginosa, read-out: MIC90) was 16 µg/mL (≈ 20.4 µM), the MIC50 [1, 4] was 16 µg/mL (≈ 20.4 µM) and the MIC90 [1, 4] was 16 µg/mL (≈ 20.4 µM). For the same compound, the “growth of clinical isolates” value ([1]; clinical isolates, in words) was “effectively inhibit the growth”, the MIC50 (Burkholderia cepacia; Burkholderia cepacia, 4 strains, concentration inhibiting growth of 50% of strains) was 16 µg/mL (≈ 20.4 µM) and the MIC90 (Burkholderia cepacia; Burkholderia cepacia, 4 strains, concentration inhibiting growth of 90% of strains) was 32 µg/mL (≈ 40.7 µM). For the same compound, the “growth of clinical isolates” value (Burkholderia cepacia; clinical isolates, in words) was “effectively inhibit the growth”, the MIC50 (Acinetobacter baumannii; Acinetobacter baumannii, 9 strains, concentration inhibiting growth of 50% of strains) was less than 0.5 µg/mL and the MIC90 (Acinetobacter baumannii; Acinetobacter baumannii, 9 strains, concentration inhibiting growth of 90% of strains) was less than 0.5 µg/mL. For the same compound, the “growth of clinical isolates” value (Acinetobacter baumannii; clinical isolates, in words) was “effectively inhibit the growth”, the MIC50 (Staphylococcus aureus; 22 strains, concentration inhibiting growth of 50% of strains) was 2 µg/mL (≈ 2.54 µM) and the MIC90 (Staphylococcus aureus; 22 strains, concentration inhibiting growth of 90% of strains) was 16 µg/mL (≈ 20.4 µM). The MIC50 (Staphylococcus aureus; MDR S. aureus including MRSA) was 2 µg/mL (≈ 2.54 µM), the MIC90 (Staphylococcus aureus; MDR S. aureus including MRSA) was 16 µg/mL (≈ 20.4 µM) and the average droplet size [2] was 5.02 μm.

For NC[C@H]1O[C@H](O[C@H]2[C@H](O)[C@@H](O[C@H]3O[C@H](CO)[C@@H](O)[C@H](N)[C@H]3O)[C@H](N)C[C@@H]2N)[C@H](N)C[C@@H]1O [TOB, tobramycin], the average droplet size [2] was 5.07 μm and the “bacterial growth in the lungs” value [3] was “around 10^8 CFUs”.
